SMILES strings stand for the structures. Active and inactive are the calls of the source. Bounds are passed on as bounds.

For test [1], the target named is T1, Serine/threonine-protein kinase D3 (Homo sapiens, UniProt O94806).
T1 sequence (O94806 whole entry): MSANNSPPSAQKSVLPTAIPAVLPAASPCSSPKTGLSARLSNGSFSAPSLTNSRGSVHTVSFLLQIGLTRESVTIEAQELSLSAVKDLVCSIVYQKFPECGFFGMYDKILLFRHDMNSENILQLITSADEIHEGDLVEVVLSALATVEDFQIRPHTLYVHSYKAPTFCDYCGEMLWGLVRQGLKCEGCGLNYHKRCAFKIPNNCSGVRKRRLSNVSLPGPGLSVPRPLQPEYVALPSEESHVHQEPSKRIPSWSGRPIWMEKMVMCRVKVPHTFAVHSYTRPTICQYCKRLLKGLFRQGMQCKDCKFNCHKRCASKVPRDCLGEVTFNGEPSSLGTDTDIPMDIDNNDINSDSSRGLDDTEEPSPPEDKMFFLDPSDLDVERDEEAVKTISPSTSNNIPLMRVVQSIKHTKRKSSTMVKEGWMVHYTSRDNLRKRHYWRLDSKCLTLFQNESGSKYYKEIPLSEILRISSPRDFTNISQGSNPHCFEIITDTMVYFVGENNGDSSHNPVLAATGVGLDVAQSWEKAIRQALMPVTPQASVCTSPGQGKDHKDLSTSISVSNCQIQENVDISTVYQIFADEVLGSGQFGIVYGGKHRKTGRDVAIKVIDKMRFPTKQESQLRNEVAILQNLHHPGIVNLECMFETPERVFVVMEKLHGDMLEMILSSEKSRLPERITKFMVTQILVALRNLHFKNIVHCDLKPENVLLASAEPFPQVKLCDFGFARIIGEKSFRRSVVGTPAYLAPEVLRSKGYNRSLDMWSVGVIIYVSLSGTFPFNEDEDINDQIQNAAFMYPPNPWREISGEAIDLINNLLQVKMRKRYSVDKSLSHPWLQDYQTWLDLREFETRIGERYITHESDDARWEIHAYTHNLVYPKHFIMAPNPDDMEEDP

Test [2] addresses Serine/threonine-protein kinase ATR (Homo sapiens, UniProt Q13535).
Test [3] addresses Tyrosine-protein kinase ABL1 (Homo sapiens, UniProt P00519).
The target of test [4] is T2, Phosphatidylinositol 5-phosphate 4-kinase type-2 alpha (Homo sapiens, UniProt P48426).
T2 sequence (P48426 whole entry): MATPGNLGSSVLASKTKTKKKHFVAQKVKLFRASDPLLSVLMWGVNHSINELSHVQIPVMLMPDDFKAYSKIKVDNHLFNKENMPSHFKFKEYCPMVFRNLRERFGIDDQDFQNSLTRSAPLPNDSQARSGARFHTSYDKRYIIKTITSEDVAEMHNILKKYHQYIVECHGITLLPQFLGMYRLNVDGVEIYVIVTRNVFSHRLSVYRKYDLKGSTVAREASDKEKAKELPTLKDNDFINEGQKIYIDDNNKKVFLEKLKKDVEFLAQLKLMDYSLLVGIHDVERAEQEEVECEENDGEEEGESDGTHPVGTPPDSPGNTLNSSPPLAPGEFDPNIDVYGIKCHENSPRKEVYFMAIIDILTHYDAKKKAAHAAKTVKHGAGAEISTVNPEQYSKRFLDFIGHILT

The next test has as its target T3, Heme oxygenase 2 (Homo sapiens, UniProt P30519).
T3 sequence (P30519 whole entry): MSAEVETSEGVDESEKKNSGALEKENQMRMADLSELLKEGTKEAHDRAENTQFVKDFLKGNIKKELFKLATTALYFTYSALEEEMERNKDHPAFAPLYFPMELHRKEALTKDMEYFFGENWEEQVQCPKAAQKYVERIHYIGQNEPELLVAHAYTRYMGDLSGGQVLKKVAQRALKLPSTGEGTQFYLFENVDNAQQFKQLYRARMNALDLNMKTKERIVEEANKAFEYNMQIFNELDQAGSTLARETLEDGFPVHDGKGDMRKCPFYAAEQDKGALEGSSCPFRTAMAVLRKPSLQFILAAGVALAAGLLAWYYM

The target of test [5] is Protein kinase C theta type (Homo sapiens, UniProt Q04759).
Test [6] has as its target T4, Beta-adrenergic receptor kinase 1 (Homo sapiens, UniProt P25098).
T4 sequence (P25098 whole entry): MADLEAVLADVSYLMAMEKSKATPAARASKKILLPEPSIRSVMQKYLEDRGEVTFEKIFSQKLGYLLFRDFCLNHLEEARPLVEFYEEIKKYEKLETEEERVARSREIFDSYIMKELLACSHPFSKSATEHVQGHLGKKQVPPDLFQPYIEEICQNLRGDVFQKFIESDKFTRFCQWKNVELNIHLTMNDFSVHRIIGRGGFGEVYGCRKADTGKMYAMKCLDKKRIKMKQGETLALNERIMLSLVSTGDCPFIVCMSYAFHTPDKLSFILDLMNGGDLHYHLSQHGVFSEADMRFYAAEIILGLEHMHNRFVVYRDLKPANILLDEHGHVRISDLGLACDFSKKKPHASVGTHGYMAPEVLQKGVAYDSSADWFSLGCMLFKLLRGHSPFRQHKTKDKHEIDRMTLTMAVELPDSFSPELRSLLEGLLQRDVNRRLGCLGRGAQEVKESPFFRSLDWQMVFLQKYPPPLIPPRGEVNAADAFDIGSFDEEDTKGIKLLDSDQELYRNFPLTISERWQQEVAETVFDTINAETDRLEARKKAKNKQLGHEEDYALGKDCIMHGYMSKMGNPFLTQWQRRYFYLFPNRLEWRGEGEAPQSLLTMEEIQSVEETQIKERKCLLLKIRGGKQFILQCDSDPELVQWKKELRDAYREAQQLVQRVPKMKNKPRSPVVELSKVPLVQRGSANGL

Test [7] has as its target Serine/threonine-protein kinase MRCK gamma (Homo sapiens, UniProt Q6DT37).
For test [8], the target named is MAP/microtubule affinity-regulating kinase 3 (Homo sapiens, UniProt P27448).
MAP/microtubule affinity-regulating kinase 3, sequence (P27448 whole entry): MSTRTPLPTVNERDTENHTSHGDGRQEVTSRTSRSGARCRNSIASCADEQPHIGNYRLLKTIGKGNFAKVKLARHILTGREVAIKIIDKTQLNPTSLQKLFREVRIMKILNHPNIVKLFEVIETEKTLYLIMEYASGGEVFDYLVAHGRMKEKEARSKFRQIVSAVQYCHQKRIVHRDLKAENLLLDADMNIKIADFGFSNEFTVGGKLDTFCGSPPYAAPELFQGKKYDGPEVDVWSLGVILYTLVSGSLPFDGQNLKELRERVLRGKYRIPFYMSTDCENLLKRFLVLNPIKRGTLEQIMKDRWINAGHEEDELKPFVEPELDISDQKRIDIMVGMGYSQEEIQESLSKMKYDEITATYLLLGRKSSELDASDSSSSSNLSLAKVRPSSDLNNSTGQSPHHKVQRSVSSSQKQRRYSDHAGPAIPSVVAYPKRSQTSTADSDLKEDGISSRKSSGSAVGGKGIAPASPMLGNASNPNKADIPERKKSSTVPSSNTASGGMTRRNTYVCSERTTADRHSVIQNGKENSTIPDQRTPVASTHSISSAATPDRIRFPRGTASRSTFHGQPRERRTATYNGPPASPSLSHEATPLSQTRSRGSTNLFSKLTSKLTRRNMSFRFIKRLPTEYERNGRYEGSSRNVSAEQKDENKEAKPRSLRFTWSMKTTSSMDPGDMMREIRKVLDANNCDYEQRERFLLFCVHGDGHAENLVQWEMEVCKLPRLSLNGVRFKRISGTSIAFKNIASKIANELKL
Test [9] deals with Ribosomal protein S6 kinase alpha-1 (Homo sapiens, UniProt Q15418).
Also: in the data inactive means no Kd found up to 30 µM.

Tyrosine-protein kinase ABL1, sequence (P00519 whole entry): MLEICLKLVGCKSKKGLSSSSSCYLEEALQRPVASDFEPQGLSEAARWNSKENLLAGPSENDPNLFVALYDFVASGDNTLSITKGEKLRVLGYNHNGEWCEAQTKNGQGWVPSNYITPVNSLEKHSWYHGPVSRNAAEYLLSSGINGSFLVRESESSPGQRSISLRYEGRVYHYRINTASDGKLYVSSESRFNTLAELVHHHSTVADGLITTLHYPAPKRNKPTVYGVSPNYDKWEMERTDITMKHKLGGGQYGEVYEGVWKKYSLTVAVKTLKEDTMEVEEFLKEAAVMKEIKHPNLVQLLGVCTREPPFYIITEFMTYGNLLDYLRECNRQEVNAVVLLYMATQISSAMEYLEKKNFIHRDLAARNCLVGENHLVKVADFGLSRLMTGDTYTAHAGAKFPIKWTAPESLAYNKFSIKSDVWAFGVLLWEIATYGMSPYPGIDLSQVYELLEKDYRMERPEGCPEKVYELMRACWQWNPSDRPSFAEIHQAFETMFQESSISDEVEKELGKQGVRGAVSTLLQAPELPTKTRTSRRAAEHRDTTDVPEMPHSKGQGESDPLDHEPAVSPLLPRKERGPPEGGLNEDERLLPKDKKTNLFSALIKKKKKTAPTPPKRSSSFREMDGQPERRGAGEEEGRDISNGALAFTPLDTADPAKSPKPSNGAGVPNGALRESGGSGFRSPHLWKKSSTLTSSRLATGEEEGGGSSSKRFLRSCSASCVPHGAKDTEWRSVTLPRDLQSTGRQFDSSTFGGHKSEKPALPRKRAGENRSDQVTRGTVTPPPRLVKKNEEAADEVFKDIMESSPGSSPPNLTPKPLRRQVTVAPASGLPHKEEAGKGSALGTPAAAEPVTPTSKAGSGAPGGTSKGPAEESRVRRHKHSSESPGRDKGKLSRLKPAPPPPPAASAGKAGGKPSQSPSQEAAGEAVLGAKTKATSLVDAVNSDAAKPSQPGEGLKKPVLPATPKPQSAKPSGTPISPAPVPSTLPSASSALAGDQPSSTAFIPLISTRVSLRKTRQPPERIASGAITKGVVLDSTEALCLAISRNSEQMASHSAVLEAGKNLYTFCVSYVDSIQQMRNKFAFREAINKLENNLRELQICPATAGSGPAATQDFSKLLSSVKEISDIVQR
Serine/threonine-protein kinase ATR, sequence (Q13535 whole entry): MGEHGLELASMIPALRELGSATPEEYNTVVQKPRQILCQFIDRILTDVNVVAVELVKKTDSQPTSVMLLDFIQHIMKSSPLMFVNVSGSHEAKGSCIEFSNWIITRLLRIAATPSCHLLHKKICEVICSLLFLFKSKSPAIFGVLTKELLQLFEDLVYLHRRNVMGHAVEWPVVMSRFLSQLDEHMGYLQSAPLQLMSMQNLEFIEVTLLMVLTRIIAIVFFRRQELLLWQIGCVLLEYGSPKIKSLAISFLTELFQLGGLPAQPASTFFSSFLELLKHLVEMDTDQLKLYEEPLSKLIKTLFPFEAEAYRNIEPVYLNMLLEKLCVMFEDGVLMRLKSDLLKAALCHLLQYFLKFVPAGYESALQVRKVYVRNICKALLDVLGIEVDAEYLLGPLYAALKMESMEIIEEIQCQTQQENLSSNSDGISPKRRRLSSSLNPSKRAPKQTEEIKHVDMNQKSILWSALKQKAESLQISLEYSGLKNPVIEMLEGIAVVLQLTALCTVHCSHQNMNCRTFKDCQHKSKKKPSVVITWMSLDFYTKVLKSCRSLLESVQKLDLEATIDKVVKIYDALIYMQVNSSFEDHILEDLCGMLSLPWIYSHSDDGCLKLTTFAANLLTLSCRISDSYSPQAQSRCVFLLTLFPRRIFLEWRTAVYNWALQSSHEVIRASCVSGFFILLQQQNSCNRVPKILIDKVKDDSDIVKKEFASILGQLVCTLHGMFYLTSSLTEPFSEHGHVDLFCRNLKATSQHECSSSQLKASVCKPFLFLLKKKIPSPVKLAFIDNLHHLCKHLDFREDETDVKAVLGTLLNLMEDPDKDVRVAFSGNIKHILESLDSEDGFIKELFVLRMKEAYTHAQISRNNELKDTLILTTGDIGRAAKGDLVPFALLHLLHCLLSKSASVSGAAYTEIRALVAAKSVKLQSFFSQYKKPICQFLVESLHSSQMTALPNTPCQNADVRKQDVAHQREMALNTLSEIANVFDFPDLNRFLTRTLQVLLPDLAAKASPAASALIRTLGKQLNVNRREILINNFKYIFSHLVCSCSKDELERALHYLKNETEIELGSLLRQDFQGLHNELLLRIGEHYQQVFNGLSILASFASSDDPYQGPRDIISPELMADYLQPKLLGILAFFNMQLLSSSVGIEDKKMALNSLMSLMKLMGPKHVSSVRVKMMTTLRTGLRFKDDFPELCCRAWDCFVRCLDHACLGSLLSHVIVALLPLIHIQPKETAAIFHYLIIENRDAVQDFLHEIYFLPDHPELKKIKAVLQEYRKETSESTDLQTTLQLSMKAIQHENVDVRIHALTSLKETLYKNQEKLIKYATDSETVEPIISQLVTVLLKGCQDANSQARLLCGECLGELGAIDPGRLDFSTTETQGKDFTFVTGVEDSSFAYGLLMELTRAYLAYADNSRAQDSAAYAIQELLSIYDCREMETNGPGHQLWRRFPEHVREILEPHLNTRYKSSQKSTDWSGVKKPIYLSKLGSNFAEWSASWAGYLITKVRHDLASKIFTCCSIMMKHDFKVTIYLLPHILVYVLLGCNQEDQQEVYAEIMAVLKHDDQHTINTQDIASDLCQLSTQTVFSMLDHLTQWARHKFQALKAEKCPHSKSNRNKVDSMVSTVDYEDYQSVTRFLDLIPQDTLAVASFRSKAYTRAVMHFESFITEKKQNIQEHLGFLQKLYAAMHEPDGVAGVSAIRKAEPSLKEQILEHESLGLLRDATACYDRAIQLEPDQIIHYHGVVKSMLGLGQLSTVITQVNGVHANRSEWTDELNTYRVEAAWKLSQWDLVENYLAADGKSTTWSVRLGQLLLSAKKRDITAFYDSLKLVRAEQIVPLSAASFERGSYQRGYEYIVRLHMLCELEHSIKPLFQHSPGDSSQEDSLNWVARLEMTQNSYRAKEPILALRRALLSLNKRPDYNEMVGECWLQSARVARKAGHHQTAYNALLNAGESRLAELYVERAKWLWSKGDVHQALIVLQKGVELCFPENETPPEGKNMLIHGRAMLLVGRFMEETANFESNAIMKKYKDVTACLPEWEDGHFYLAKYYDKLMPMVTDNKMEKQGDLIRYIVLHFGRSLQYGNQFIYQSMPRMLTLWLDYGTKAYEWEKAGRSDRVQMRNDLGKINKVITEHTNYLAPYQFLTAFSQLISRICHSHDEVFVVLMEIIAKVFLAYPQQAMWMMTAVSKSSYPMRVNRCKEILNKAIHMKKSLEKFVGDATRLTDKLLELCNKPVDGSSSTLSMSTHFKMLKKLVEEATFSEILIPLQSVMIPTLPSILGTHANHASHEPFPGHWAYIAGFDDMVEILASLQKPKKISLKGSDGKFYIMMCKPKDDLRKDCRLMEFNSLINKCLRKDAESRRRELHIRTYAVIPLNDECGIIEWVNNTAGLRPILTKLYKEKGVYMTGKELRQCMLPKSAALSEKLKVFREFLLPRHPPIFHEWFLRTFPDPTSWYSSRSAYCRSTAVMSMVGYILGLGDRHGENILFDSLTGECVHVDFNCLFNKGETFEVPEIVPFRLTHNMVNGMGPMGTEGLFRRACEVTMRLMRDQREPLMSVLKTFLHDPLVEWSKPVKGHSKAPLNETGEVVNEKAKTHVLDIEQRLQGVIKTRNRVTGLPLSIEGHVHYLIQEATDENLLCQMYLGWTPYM

With `O=C(Nc1nc2cccc(-c3ccc(CN4CCS(=O)(=O)CC4)cc3)n2n1)C1CC1` [FILGOTINIB], the Kd (in [1]; in [2]; in test [3]; in test [4]; on Heme oxygenase 2; in [5]) was > 30 µM (inactive) throughout. The Kd in test [6], in test [7], in test [8] and in [9] was > 30 µM (inactive) each time.

Take `Cc1cccc(-c2nn3c(c2-c2ccnc4ccc(C(N)=O)cc24)CCC3)n1` [GALUNISERTIB]: the Kd (in [1]; in test [2]; in test [3]; in [4]; on Heme oxygenase 2; in [5]) was > 30 µM (inactive) throughout. The Kd in [6], in test [7], in [8] and in [9] was > 30 µM (inactive) throughout.

For the compound `COc1ccc(S(=O)(=O)N(C(C)=O)c2ccccc2/C=C/c2cc[n+]([O-])cc2)cc1` [HMN-214], the Kd (in [1]; in test [2]; in test [3]; in test [4]; at Heme oxygenase 2; in [5]) was > 30 µM (inactive) throughout. Also, the Kd in [6], in test [7], in test [8] and in [9] was > 30 µM (inactive) throughout.

On to `O=C(Nc1cc(C(F)(F)F)cc(C(F)(F)F)c1)c1cc(Cl)ccc1O` [IMD-0354], for which the Kd (in test [1]; in [2]; in test [3]; in test [4]; on Heme oxygenase 2; in test [5]) was > 30 µM (inactive) in each case. The Kd in test [6], in test [7], in test [8] and in [9] was > 30 µM (inactive) each time.

In the case of `CNC(=O)c1cccc2cc(Oc3ccnc4cc(OCC5(N)CC5)c(OC)cc34)ccc12` [LUCITANIB], the Kd (in test [1]; in test [2]; in test [3]; in test [4]; at Heme oxygenase 2; in test [5]) was > 30 µM (inactive) in each case. Besides, the Kd in test [6], in test [7], in [8] and in [9] was > 30 µM (inactive) throughout.

For the compound `Cn1cc(-c2cnc3ccc4ccc(CS(=O)(=O)NCc5ccccn5)cc4c(=O)c3c2)cn1` [MK-8033], the Kd (in [1]; in [2]; in test [3]; in [4]; on Heme oxygenase 2; in [5]) was > 30 µM (inactive) throughout. In addition, the Kd in test [6], in [7], in test [8] and in [9] was > 30 µM (inactive) each time.

`COc1ncc(-c2ccc3nccc(-c4ccnnc4)c3c2)cc1NS(=O)(=O)c1ccc(F)cc1F` [OMIPALISIB]: the Kd (in [1]; in test [2]; in [3]; in test [4]; on Heme oxygenase 2; in [5]) was > 30 µM (inactive) in each case. Further, the Kd in test [6], in test [7], in [8] and in [9] was > 30 µM (inactive) in each case.

For the compound `Cc1nc(Nc2n[nH]c3c2CN(C(=O)N[C@H](CN(C)C)c2ccccc2)C3(C)C)c2sccc2n1` [PF-03758309], the Kd (usually the free concentration of one partner at which half of the binding sites on the other are occupied at equilibrium, for simple one-to-one binding) in test [1] is 0.268 µM (active); in test [2] it was > 30 µM (inactive); in test [3], > 30 µM (inactive); in [4], > 30 µM (inactive); at Heme oxygenase 2 it was > 30 µM (inactive); in [5], 0.085 µM (active). Further, the Kd is 22.5 µM (active) in test [6], > 30 µM (inactive) in test [7], 0.105 µM (active) in test [8] and 0.82 µM (active) in [9].

For `N#CC1(c2ccc(NC(=O)c3cccnc3NCc3ccncc3)cc2)CCCC1` [RIVOCERANIB], the Kd (in test [1]; in [2]; in test [3]; in test [4]; on Heme oxygenase 2; in test [5]) was > 30 µM (inactive) each time. Further, the Kd in test [6], in test [7], in [8] and in test [9] was > 30 µM (inactive) each time.

On to `O=c1[nH]ccc2cc(OC3CCNCC3)ccc12` [SAR-407899 FREE BASE], for which the Kd (in test [1]; in [2]; in test [3]; in test [4]; on Heme oxygenase 2; in test [5]) was > 30 µM (inactive) each time. The Kd in test [6], in test [7], in test [8] and in [9] was > 30 µM (inactive) throughout.

Regarding `CO[C@H]1C[C@@H]2CC[C@@H](C)[C@@](O)(O2)C(=O)C(=O)N2CCCC[C@H]2C(=O)O[C@H]([C@H](C)C[C@@H]2CC[C@@H](OC(=O)C(C)(CO)CO)[C@H](OC)C2)CC(=O)[C@H](C)/C=C(\C)[C@@H](O)[C@@H](OC)C(=O)[C@H](C)C[C@H](C)/C=C/C=C/C=C/1C` [TEMSIROLIMUS], the Kd (in [1]; in test [2]; in test [3]; in test [4]; on Heme oxygenase 2; in test [5]) was > 30 µM (inactive) each time. The Kd in [6], in [7], in [8] and in test [9] was > 30 µM (inactive) in each case.
